The values that follow come from patent publication US20090216117A1, “NOVEL METHOD OF USING TRIACETIN AND AUXILIARY AGENT FOR ULTRASONIC DIAGNOSTIC EXAMINATION” (SHINSHU UNIVERSITY, priority 2005, published 2009).

Entries after “also recorded” stand apart in the source; their conditions may differ.

The test system of series [1] is Beagles. Description: Test 2: Pylorus occlusion test (gastric emptying, Evans blue recovery from duodenum). The format is in vivo. The following applies: for suppression of quantitative gastric emptying in comparison with physiological saline: 50 mL test fluid into stomach; for percent emptied: after 50 minutes, almost all physiological saline emptied by about 30 minutes. Here is the method: To 10 mL of triacetin (Wako Pure Chemical Industries, Ltd.), 40 mL of water was added to make a total volume of 50 mL, thereby making test fluid A.
Ten milliliters of olive oil (Wako Pure Chemical Industries, Ltd.) and 10 mL of propylene glycol were mixed and water was added to make a total volume of 50 mL, thereby making test fluid B.
Half a gram of stearic acid (Wako Pure Chemical Industries, Ltd.) and 20 mL of propylene glycol were mixed and water was added to make a total volume of 50 mL, thereby making test fluid C.
Beagles each weighing about 10 kg were given general anesthesia with an injection of Nembutal (Dainippon Pharmaceutical Co., Ltd.) and following middle incision, tubes were inserted into the body of stomach and the duodenum as shown in FIG. 8 and with each tube being passed subcutaneously through the flank to the back, the dogs received a preliminary invasive operation for an experiment under an unanesthetized condition.
Starting six days after the operation when there were no longer the effects of anesthesia and those of the operative invasion and the general condition had recovered, the study of the sample fluids of interest was started. To be more specific, it is well known that the gastric emptying capability is suppressed under an anesthetized condition, so in the Example under consideration, in order to eliminate that effect and also to determine data for a more normal state, an experiment was conducted under a chronic unanesthetized condition.
To each test fluid, 5 mg of Evans blue (Wako Pure Chemical Industries, Ltd.) was added and 50 mL of the mixture was injected into the stomach of each beagle through the tube indicated by 1 in FIG. 8. Similarly, a tube was placed in the duodenum and the test fluid emptied from the stomach was recovered through the tube indicated by 2 in FIG. 8. At given time intervals, the emptied test fluid was recovered by suction (for one minute) through the tube left in place in the duodenum and the Evans blue contained in it was measured for absorbance (DU R640 SPECTRO PHOTOMETER, product of Beckman Inc.) at a wavelength of 605 nm, to thereby measure the concentration of Evans blue in the suctioned fluid; the amount of recovery was used to determine the gastric emptying rate.

Series [2] can be described thus: Dissolution of triacetin in water. The format is physicochemical. The conditions noted are these: ordinary temperature. An excerpt: If the auxiliary agent for examination in ultrasonic imaging diagnosis is used in the state of an emulsion, the oil-water interface will reflect ultrasound and affect its propagation. […] For instance, triacetin described in the present invention can be dissolved in water in an amount of about 7% at ordinary temperature without forming an emulsion and this concentration is sufficient for suppressing gastric motility.

Series [3] can be described thus: Test 1: viscosity comparison with Brookfield viscometer. The format is physicochemical. Here is the method:
Using water (ion-exchanged water), an aqueous solution of triacetin, and an aqueous solution of sodium alginate which is a typical viscosity enhancing polysaccharide (KIMICA Corporation, Grade: IL-2), viscosity comparison was made. Viscosity was measured with a Brookfield viscometer (product of TOKIMEC INC., Model BM).

In series [4] the test system is Beagles. The experiment in a line: Test 3: Measurement of gastric contractile motion by strain gage. The format is in vivo. Here is the method:
Two hundred microliters of triacetin (Wako Pure Chemical Industries, Ltd.) was dissolved in distilled water to make a volume of 20 mL, thereby making test fluid D.
Four milliliters of olive oil (Wako Pure Chemical Industries, Ltd.) was dissolved in distilled water to make a volume of 20 mL, thereby making test fluid E.
Twenty milliliters of distilled water was used as control fluid F.
In order to measure muscular contraction with the strain gage, the submucosa was stretched so that the surface of the mucous membrane would not be incised and the strain gage was buried in the submucosa and sutured thereto, with the wound of incision being closed by a suture.
The tube and the strain gage were subcutaneously guided to the outside of the body from the flank to the back and the dogs received a preliminary invasive operation for an experiment under an unanesthetized condition.
Starting six days after the operation when there were no longer the effects of anesthesia and those of the operative invasion and the general condition had recovered, the study of the sample fluids of interest was started. […]
Note that signals from the strain gage were amplified (VC-11, NIHON KOHDEN) and then AD converted, with the resulting digital data being analyzed with Origin Version 6.5 (OriginLab Corporation). […]

On to `CCCCCCCCCCCCCCCCCC(=O)O` [stearic acid, reference compound], for which, in series [1], the “suppression of quantitative gastric emptying in comparison with physiological saline” value is reported as “obvious suppression” and the percent emptied result is on record as “about 10%”.
On to `CC(=O)OCC(COC(C)=O)OC(C)=O` [Triacetin, triacetin], for which, in series [2], the “amount that can be dissolved in water without forming an emulsion” value is on record as “about 7%”. The Viscosity in series [3] (0.2% aqueous solution) is 10.1 mPa · s; in series [3] (1.0% aqueous solution), 10.8 mPa · s; in series [3] (5.0% aqueous solution), 16.7 mPa · s. Also, the “viscosity enhancement as compared with sodium alginate” value in series [3] (aqueous solutions) was “considerably less effective in viscosity enhancement”. The “time at which the emptied amount peaked” value in series [1] (50 mL test fluid A into stomach, physiological saline peaked at about 5 minutes) lay in the range of 10 to 20 min. In addition, in series [1] (50 mL test fluid injected into stomach, unanesthetized beagles, physiological saline as comparison), the pylorus occluding effect result is “markedly effective in occluding the pylorus”. Also, in series [1], the “suppression of quantitative gastric emptying in comparison with physiological saline” value was “obviously suppressed”. Further, the percent emptied entry in series [1] is reported as “about 5%”. In series [4] (20 μL/kg injected into stomach in phase III, fasted unanesthetized beagles), the “change in amplitude and frequency of contractions (contractile motion of the stomach)” value is “obvious suppression of the contractile motion; also recorded: decreased both the amplitude and frequency of contractions”. In series [4] (20 μL/kg, change occurred immediately after the injection), the “duration of the suppression of contractile motion after injection” value is given as “about three”.
